Measurements published in patent publication US20250019389A1, “HETEROCYCLIC AGONISTS” (Gasherbrum Bio, Inc., priority 2023, published 2025).

target: GLP-1 Receptor (Homo sapiens (Human), UniProt P43220); test: GLP-1R agonist cAMP stimulation assay; assay type: cell-based; conditions: cAMP stimulation in HEK293/GLP1R/CRE-LUC cells, 30 min at 37° C., cAMP dynamic 2 Kit (Cisbio)
Experimental: Activation of GLP-1 receptor is known to stimulate cyclic AMP (cAMP) production in cells which indicates primary coupling to the G as subunit of the G protein heterotrimeric complex.
To optimize functional activity directed toward G αs coupling, a HEK293/CRE-Luc cell line developed by HDB stably expressing the GLP-1 Receptor was used. 200× concentration of compound working solutions were prepared (Agilent Technologies Bravo) with ½ log serial dilution in 384-well Echo LDV plate (Labcyte, Cat #LP-0200). 50 nL/well 200× concentration of compound working solutions were moved to 384-well white low volume plate (Greiner, Cat #784075) using Labcyte ECH0550.1×10^5 cells/mL HEK293/GLP1R/CRE-LUC (HD Biosciences) cell suspensions prepared with assay buffer [DPBS containing 0.5 mM IBMX (Sigma, Cat #I5879) and 0.1% BSA (GENVIEW, Cat #FA016-100 g)], 10 μL cell suspensions were added to each well of previous generated assay plate which already contains 50 nL compound at 200× concentration using ThermoFisher Multidrop Combi (1000 cells/well). Seal the plate and incubate at 37° C. with 5% CO2 for 30 min.
After incubation the cAMP assay signal was generated using cAMP dynamic 2 Kit (Cisbio). 5 μL cAMP-d2 working solution was added to each well, followed with 5 μL Anti-cAMP antibody-cryptate working solution added to each well using ThermoFisher Multidrop Combi. Incubate at room temperature for 1 hour protected from light. Read the fluorescence at 665 and 615 nm with Reader PerkinElmer EnVision.

GLP-1 Receptor, sequence (P43220 24-463, species assumed): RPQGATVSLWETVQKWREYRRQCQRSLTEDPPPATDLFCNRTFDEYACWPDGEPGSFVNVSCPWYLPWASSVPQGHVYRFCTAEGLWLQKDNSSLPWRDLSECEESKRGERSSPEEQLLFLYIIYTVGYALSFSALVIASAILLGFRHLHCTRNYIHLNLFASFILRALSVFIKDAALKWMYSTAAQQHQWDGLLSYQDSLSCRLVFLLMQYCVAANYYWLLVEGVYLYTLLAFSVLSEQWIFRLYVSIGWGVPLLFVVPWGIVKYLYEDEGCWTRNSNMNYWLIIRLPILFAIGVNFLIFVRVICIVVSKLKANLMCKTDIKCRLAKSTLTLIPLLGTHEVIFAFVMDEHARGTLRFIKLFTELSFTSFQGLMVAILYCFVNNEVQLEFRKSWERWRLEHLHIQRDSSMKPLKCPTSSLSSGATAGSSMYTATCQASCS

Row | EC50 | SMILES
1 | 0.031 nM | CCP(=O)(c1ccc(-n2ccn(-c3c4c(nn3-c3cc(C)c(F)c(C)c3)CCN(C(=O)c3cc5cc(C6CCOCC6)ccc5n3[C@@]3(c5noc(=O)[nH]5)C[C@@H]3C)[C@H]4C)c2=O)cc1NC)C(C)O (single isomer, unassigned) [Compound 108]
2 | 0.017 nM | CCP(=O)(CCO)c1ccc(-n2ccn(-c3c4c(nn3-c3cc(C)c(F)c(C)c3)CCN(C(=O)c3cc5cc(C6CCOCC6)ccc5n3[C@@]3(c5noc(=O)[nH]5)C[C@@H]3C)[C@H]4C)c2=O)cc1NC (single isomer, unassigned) [Compound 102]
3 | 0.035 nM | CCP(=O)(c1ccc(-n2ccn(-c3c4c(nn3-c3cc(C)c(F)c(C)c3)CCN(C(=O)c3cc5cc(C6CCOCC6)ccc5n3[C@@]3(c5noc(=O)[nH]5)C[C@@H]3C)[C@H]4C)c2=O)cc1NC)C(C)O (single isomer, unassigned) [Compound 105]
4 | 0.029 nM | CCP(=O)(c1ccc(-n2ccn(-c3c4c(nn3-c3cc(C)c(F)c(C)c3)CCN(C(=O)c3cc5cc(C6CCOCC6)ccc5n3[C@@]3(c5noc(=O)[nH]5)C[C@@H]3C)[C@H]4C)c2=O)cc1NC)C(C)O (single isomer, unassigned) [Compound 106]
5 | 0.042 nM | CCP(=O)(c1ccc(-n2ccn(-c3c4c(nn3-c3cc(C)c(F)c(C)c3)CCN(C(=O)c3cc5cc(C6CCOCC6)ccc5n3[C@@]3(c5noc(=O)[nH]5)C[C@@H]3C)[C@H]4C)c2=O)cc1NC)C(C)O (single isomer, unassigned) [Compound 107]
6 | 0.012 nM | CCP(=O)(CCO)c1ccc(-n2ccn(-c3c4c(nn3-c3cc(C)c(F)c(C)c3)CCN(C(=O)c3cc5cc(C6CCOCC6)ccc5n3[C@@]3(c5noc(=O)[nH]5)C[C@@H]3C)[C@H]4C)c2=O)cc1NC (single isomer, unassigned) [Compound 103]
